Measurements as given in patent publication US9920357B2, “Systems and methods for identifying cosmetic agents for hair/scalp care compositions” (The Procter & Gamble Company, priority 2012, dated 2018).

Legend:
[1] = target: T1, MAOB (Homo sapiens, UniProt P27338); assay: MAOB enzyme inhibition assay; assay type: biochemical; details: active = >=40% inhibition and dose response
T1 sequence (P27338 1-520): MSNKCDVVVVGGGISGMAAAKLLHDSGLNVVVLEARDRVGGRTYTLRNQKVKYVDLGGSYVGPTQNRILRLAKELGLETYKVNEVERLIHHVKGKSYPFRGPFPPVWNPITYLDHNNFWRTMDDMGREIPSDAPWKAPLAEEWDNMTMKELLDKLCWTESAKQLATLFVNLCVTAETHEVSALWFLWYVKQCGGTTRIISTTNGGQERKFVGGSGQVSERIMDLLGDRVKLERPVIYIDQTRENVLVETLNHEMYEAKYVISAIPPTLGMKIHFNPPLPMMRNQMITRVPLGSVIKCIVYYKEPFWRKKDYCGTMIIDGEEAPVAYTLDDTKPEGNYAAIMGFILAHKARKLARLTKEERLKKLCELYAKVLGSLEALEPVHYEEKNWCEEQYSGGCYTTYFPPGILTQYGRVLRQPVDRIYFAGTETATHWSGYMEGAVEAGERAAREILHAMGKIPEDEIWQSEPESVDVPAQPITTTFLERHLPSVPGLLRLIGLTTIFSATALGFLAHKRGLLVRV
Protocol: (§1) Affy signatures yielded 60 materials that were plated and provided for evaluation in a MAOB enzyme inhibition assay and 46 pure material were tested in a MAOB reporter assay.

[2] = system: MAOB; assay: MAOB reporter assay; assay type: cell-based; details: active = >=60% inhibition and dose response
Protocol: as §1

[3] = system: hair count; assay: Clinical studies of hair count; assay type: in vivo

`CCN(CC)CCCC(C)Nc1c2ccc(Cl)cc2nc2ccc(OC)cc12` (stereo not drawn) [quinacrine] was tested, and the “activity in MAOB enzyme inhibition assay” value [1] was “active and hit” and the “activity in MAOB reporter assay” value [2] was “active and hit”.

In the case of `O=c1cc(-c2ccc(O)cc2)oc2cc(O)cc(O)c12` [Apigenin], the hair count [3] is reported as “significant hair count benefit”.
